This passage reports TGI and GI50 results from PubChem BioAssay (NCI).

Among the test systems are HCT-15 colon; HL-60(TB) leukemia; UACC-257 melanoma; SF-295 CNS; 786-0 renal; EKVX NSCLC; M14 melanoma; ACHN renal; SNB-19 CNS; SR leukemia.
Common to all, as to test: NCI-60 cell line screen, 48 h

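Grown in 96-well plates, cells were treated for 48 hours with each compound at five concentrations. Insufficient inhibition: endpoint recorded as highest concentration tested. GI50 marks 50% less growth. TGI marks complete inhibition of growth.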

Turning to `CCCC(S(=O)(=O)c1ccccc1)S(=O)(=O)c1ccccc1`, the TGI in the test on HCT-15 colon, in the test on HL-60(TB) leukemia, in the test with UACC-257 melanoma, in the test with SF-295 CNS, in the test on 786-0 renal and in the test on EKVX NSCLC was greater than 100 µM in each case. Moreover, the TGI in the test with M14 melanoma and in the test on ACHN renal was greater than 100 µM in each case.

Regarding `O=C(O)c1ccccc1NC(=S)c1ccccc1`, the TGI was greater than 100 µM with HCT-15 colon; greater than 100 µM in the test with SNB-19 CNS; 98.3 µM in the test on HL-60(TB) leukemia; greater than 100 µM in the test with UACC-257 melanoma; greater than 100 µM in the test with SF-295 CNS; greater than 100 µM in the test with 786-0 renal. Further, the TGI in the test with EKVX NSCLC is greater than 100 µM; in the test on M14 melanoma, greater than 100 µM; with ACHN renal it was 84.6 µM.

For `Fc1cccc(F)c1C(Nc1nncs1)Nc1nncs1`, the TGI with HCT-15 colon, with SNB-19 CNS, in the test with UACC-257 melanoma, in the test on SF-295 CNS, with 786-0 renal and with M14 melanoma was greater than 100 µM each time. In the test with ACHN renal, this compound had a TGI greater than 100 µM.

With `Cc1ccccc1-n1c(N)c(-c2nc3ccccc3[nH]2)sc1=S`, the TGI was 71.7 µM with HCT-15 colon; 66.4 µM with SNB-19 CNS; 66.6 µM in the test on HL-60(TB) leukemia; 36.6 µM in the test with UACC-257 melanoma; 42.4 µM with SF-295 CNS; 81.3 µM with 786-0 renal. Also, the TGI with EKVX NSCLC is 88.5 µM; with M14 melanoma, 36.5 µM; with ACHN renal, greater than 100 µM.

Take `CC1=C(C(=O)Nc2ccc(Cl)c(Cl)c2)C(c2ccc([N+](=O)[O-])cc2)C(C(=O)Nc2ccc(Cl)c(Cl)c2)=C(C)N1`: the TGI in the test on HCT-15 colon was 7.88 µM; with SNB-19 CNS, greater than 71.3 µM; in the test on UACC-257 melanoma it was 7.84 µM; in the test with SF-295 CNS, 9.24 µM; with 786-0 renal it was 11.1 µM; in the test with EKVX NSCLC, 15.4 µM. The TGI in the test with M14 melanoma is 3.82 µM; with ACHN renal it was 16.9 µM.

Regarding `O=C1OC(=O)c2c1c(-c1ccccc1)nc1ccccc21`, the TGI in the test on HCT-15 colon, in the test with SNB-19 CNS, with HL-60(TB) leukemia, with UACC-257 melanoma, in the test on SF-295 CNS and in the test with 786-0 renal was greater than 100 µM in each case. Also, the TGI in the test with EKVX NSCLC and in the test with M14 melanoma was greater than 100 µM in each case.

For the compound `O=C(/C=C/c1ccc(Cl)c(Cl)c1)c1cccc2ccccc12`, the TGI with HCT-15 colon is 7.12 µM; with SNB-19 CNS it was 19.4 µM; in the test on HL-60(TB) leukemia it was 7.21 µM; in the test with UACC-257 melanoma it was 29.5 µM; in the test on SF-295 CNS, 24.5 µM; with 786-0 renal it was 13.2 µM. In addition, the TGI with EKVX NSCLC was 32.5 µM; in the test with M14 melanoma, 30.9 µM; in the test with ACHN renal, 30 µM.

With `c1cc(N2CCN(c3ccc(C4=NCCCN4)cc3)CC2)ccc1C1=NCCCN1`, the GI50 with HCT-15 colon is greater than 100 µM; in the test on SNB-19 CNS it was greater than 71.2 µM; with UACC-257 melanoma it was 99 µM; with SF-295 CNS, greater than 25.1 µM; with 786-0 renal, greater than 100 µM; in the test with EKVX NSCLC it was greater than 100 µM. The figures for the GI50 in the test with M14 melanoma and in the test on ACHN renal were greater than 100 µM and greater than 69.9 µM, respectively. The TGI in the test with HCT-15 colon is greater than 100 µM; in the test with SNB-19 CNS it was greater than 100 µM; in the test with HL-60(TB) leukemia it was greater than 89 µM; with UACC-257 melanoma, greater than 100 µM; with SF-295 CNS, greater than 100 µM; in the test on 786-0 renal it was greater than 100 µM. Besides, the TGI in the test on EKVX NSCLC, in the test with M14 melanoma and in the test with ACHN renal was greater than 100 µM in each case.

Turning to `CCOC(=O)c1cc2c(cc1Cl)SC(=Nc1ccccc1)N(S(=O)(=O)c1ccc(Br)s1)S2(=O)=O`, the GI50 is 13.5 µM in the test with HCT-15 colon; 36.6 µM in the test on SNB-19 CNS; 13.5 µM in the test on UACC-257 melanoma; 21.5 µM in the test on SF-295 CNS; 17.5 µM with 786-0 renal; 15.5 µM with EKVX NSCLC. The GI50 with M14 melanoma was 15.2 µM; in the test on ACHN renal, 14.4 µM. The TGI in the test with HCT-15 colon is 27.1 µM; with SNB-19 CNS, greater than 100 µM; in the test on UACC-257 melanoma, 30.4 µM; with SF-295 CNS, 46.4 µM; in the test on 786-0 renal it was 32.6 µM; in the test on EKVX NSCLC it was 32.3 µM. In addition, the values for the TGI in the test with M14 melanoma and in the test on ACHN renal were 35 µM and 27.5 µM, respectively.

With `COc1ccc(/C=C(\C)[N+](=O)[O-])cc1OC`, the GI50 was 1.4 µM in the test on HCT-15 colon; 11.3 µM with SNB-19 CNS; 1.88 µM in the test with UACC-257 melanoma; 17.8 µM in the test with SF-295 CNS; 1.93 µM with 786-0 renal; 2.04 µM in the test on SR leukemia. Moreover, the results for the GI50 with M14 melanoma and in the test on ACHN renal were 1.96 µM and 1.69 µM, respectively. Besides, the TGI with HCT-15 colon is 3.54 µM; in the test with SNB-19 CNS, 23.6 µM; in the test on UACC-257 melanoma, 3.5 µM; in the test on SF-295 CNS, 32.3 µM; in the test with 786-0 renal it was 3.57 µM; in the test with SR leukemia it was greater than 100 µM. For the same compound, the figures for the TGI in the test on M14 melanoma and in the test with ACHN renal were 3.95 µM and 3.16 µM, respectively.

Regarding `CC1=C(CC2C(=O)N(c3ccccc3)S(=O)(=O)NC2C)C(=O)N(c2ccccc2)S(=O)(=O)N1C` (centres undefined), the TGI in the test with HCT-15 colon, in the test on SNB-19 CNS, in the test on SF-295 CNS, in the test with 786-0 renal, in the test on EKVX NSCLC and with SR leukemia was greater than 100 µM throughout. Besides, the TGI in the test on M14 melanoma and in the test with ACHN renal was greater than 100 µM throughout.

With `O=C(NCCNCCO)c1cccc2ccc(-c3ccccc3)nc12`, the TGI in the test with HCT-15 colon was 14.8 µM; with SNB-19 CNS it was 28.7 µM; in the test with HL-60(TB) leukemia, greater than 100 µM; in the test with UACC-257 melanoma, 14.2 µM; with SF-295 CNS, 18.9 µM; with 786-0 renal, 19.6 µM. Moreover, the TGI turned out to be 19.7 µM in the test on EKVX NSCLC, 17.8 µM in the test with M14 melanoma and 5.65 µM with ACHN renal.

With `COc1ccc(-c2cc(=O)c3c(O)cccc3o2)c(OC)c1OC`, the TGI in the test with HCT-15 colon, in the test with HL-60(TB) leukemia, in the test on UACC-257 melanoma, in the test with SF-295 CNS, with 786-0 renal and in the test on M14 melanoma was greater than 100 µM throughout. This compound came in with a TGI in the test with ACHN renal greater than 100 µM.

On to `CSc1ccc(C2=NN(C(C)=O)C(c3ccc(-c4ccc(Cl)cc4)o3)C2)cc1` (centres undefined), for which the GI50 is 23.2 µM in the test with HCT-15 colon; greater than 100 µM in the test on SNB-19 CNS; 15.3 µM in the test on HL-60(TB) leukemia; 77 µM in the test on UACC-257 melanoma; 34 µM in the test with SF-295 CNS; 38.8 µM in the test on 786-0 renal. Also, the GI50 in the test with EKVX NSCLC is 50.2 µM; in the test with M14 melanoma, 29.8 µM; in the test with ACHN renal, 37.1 µM. The TGI in the test with HCT-15 colon, in the test with SNB-19 CNS, with HL-60(TB) leukemia, in the test on UACC-257 melanoma, with SF-295 CNS and in the test on 786-0 renal was greater than 100 µM throughout. The TGI in the test with EKVX NSCLC, in the test with M14 melanoma and in the test with ACHN renal was greater than 100 µM in each case.

For `Cc1cc2c(c(C(N)=O)c1C)-c1cc(Cl)cc(Cl)c1C2=O`, the TGI in the test with HCT-15 colon, in the test with SNB-19 CNS, with HL-60(TB) leukemia, with UACC-257 melanoma, in the test on SF-295 CNS and in the test on 786-0 renal was greater than 100 µM in each case. The TGI in the test with EKVX NSCLC, with M14 melanoma and in the test on ACHN renal was greater than 100 µM each time.

For `C/C(=N\O)c1cccc(Nc2cc(-n3ccnc3)c3ccccc3n2)c1`, the GI50 with HCT-15 colon is 9.26 µM; in the test on SNB-19 CNS it was 17.5 µM; in the test on SF-295 CNS, 8.16 µM; with 786-0 renal, 12.2 µM; in the test on EKVX NSCLC, 13.2 µM; with M14 melanoma, 11.6 µM. Further, in the test on ACHN renal, the GI50 is 7.31 µM. Also, the TGI in the test on HCT-15 colon came to 22.6 µM; with SNB-19 CNS it was 43.6 µM; in the test with SF-295 CNS, 22.8 µM; with 786-0 renal, 28.7 µM; in the test with EKVX NSCLC, 28.1 µM; with M14 melanoma, 24.1 µM. For the same compound, the TGI in the test with ACHN renal was determined as 19.4 µM.

Take `CCOC(=O)C1Nc2ccccc2[C@H]2OCC[C@@H]12` (some centres undefined): the TGI with HCT-15 colon, in the test with SNB-19 CNS, with HL-60(TB) leukemia, in the test with UACC-257 melanoma, in the test with SF-295 CNS and with 786-0 renal was greater than 100 µM in each case. The TGI in the test on EKVX NSCLC, in the test on M14 melanoma and in the test on ACHN renal was greater than 100 µM each time.

For the compound `Oc1cccc2c1NCCC2`, the GI50 was 0.19 µM with HCT-15 colon; 0.164 µM in the test on SNB-19 CNS; 0.194 µM in the test with HL-60(TB) leukemia; 1.12 µM with UACC-257 melanoma; 0.139 µM with SF-295 CNS; 0.734 µM in the test with 786-0 renal. The results for the GI50 in the test with EKVX NSCLC, in the test with M14 melanoma and in the test with ACHN renal were 1.78 µM, 0.142 µM and 0.127 µM, respectively. Further, the TGI in the test with HCT-15 colon is greater than 100 µM; with SNB-19 CNS, greater than 100 µM; in the test on HL-60(TB) leukemia, 7.84 µM; with UACC-257 melanoma, 5.83 µM; in the test with SF-295 CNS, greater than 22.6 µM; with 786-0 renal it was greater than 100 µM. For the same compound, the results for the TGI with EKVX NSCLC, in the test with M14 melanoma and in the test on ACHN renal were greater than 100 µM, 15.6 µM and greater than 70.7 µM, respectively.
